Measured values published in US12227492B1, “Pyrimidine nucleosides as anticancer agents against pancreatic cancer” (Florida A&M University, priority 2021, dated 2025).
Where a name gives a salt, the structure may show the parent alone. Read-outs that look alike come from different tables or passages of the source.

Key:
[1] = tested on: MiaPaCa-2 pancreatic cancer cell line; assay: In vitro cell viability studies (resazurin/Alamar Blue); format: cell-based; details: for IC50: Homo sapiens, MIA PaCa-2, MiaPaCa-2, 48 hr incubation
Experimental: Prior to viability studies, Dulbecco's modified Eagle medium (DMEM) with high glucose and L-glutamine was supplemented with 10% fetal bovine serum (FBS) and 1% penicillin-streptomycin (PenStrep). Briefly, MiaPaCa-2 cells were seeded at a density of 1×10^3 per well in 96-well plates in triplicates for each drug concentration level and incubated at 5% CO2 and temperature of 37° C. At 70-75% confluence, MiaPaCa-2 cells were treated with compounds XYZ-I-71, XYZ-I-73, 5-Fluorouracil (5-FU), Gemcitabine (Gem) and Irinotecan. Varying concentrations of 4NSG was prepared from its stock solution with growth medium. For 5-Fluorouracil (5-FU), Gemcitabine Hydrochloride (GemHCl) and Irinotecan, a stock solution was prepared with phosphate-buffered saline (PBS) and serially diluted with growth medium to prepare varied concentrations: thus 3, 6, 12, 25, and 100 μM. Cells was treated with 100 μL of each drug concentration in triplicates and incubated for 48 hr. At termination, 20 μL of 0.05% resazurin sodium salt (Alamar Blue®) was added and incubated at optimum conditions (5% CO2, 37° C.) for 4 hr. Fluorimetric analysis was determined at excitation wavelength of 560/580 nm and emission wavelength of 590/610 nm and the percent viable cells per concentration was calculated. For statistical analysis, results are presented as mean±SD. Data were analyzed for significance by one-way ANOVA, using GraphPad Prism 5 Software and IC50 values were determined.

[2] = Log P; format: physicochemical
[3] = tested on: MiaPaCa-2 cells; assay: In vitro cell migration (wound) assay; format: cell-based; details: 2, 5 and 10 μM, after 48 h, compared with 5-FU, GemHCl
Experimental: A uniform scratch was made in 90% confluent monolayer culture of MiaPaCa-2 cells and the extent of closure was monitored under microscope and photographed. […] Migrated cells within the scratch were quantified and the distance of migration measured using NIH ImageJ software. […] Over the same incubation time, the cells in the control group (48 h) migrated farther achieving a complete or near closure of the wounds. The results are expressed as the means (±SEM, N=4) relative to the control.
Cell migration assay was conducted to determine the effect of on 5-FU, GemHCl, XYZ-I-71 and XYZ-I-73 MiaPaCa-2 cell motility. Ibidi cell culture inserts were used to generate two confluent monolayers of cells separated by a “wound” for this assay. The cells were seeded in 24-well plates at a cell density of 2.5×10^5, for 24 h at 37° C. At 75% confluency, cells formed adherent monolayers on either side of the tissue culture insert. Prior to treatment, the cells were serum-starved by replacing complete media with base media (DMEM) and then further incubated for 24 hours. After serum starving, the insert was gently removed to generate a gap or “wound’ between the two confluent layers of cells. The monolayers were washed with experimental media and afterwards cells were exposed to varying concentrations of 5-FU, GemHCl, XYZ-I-71 and XYZ-I-73 (1, 2, 5 and 10 μM). […]

[4] = mean ± SD, read-out: IC50 (μM) against MiaPaCa-2 cell line as determined by cell viability studies
[5] = read-out: IC50 values, cytotoxic activity against MiaPaCa-2 cancer line

Row | Compound | IC50 [1, 4] [µM] | logP [2] | IC50 [1, 5] [µM] | efficacy against MiaPaCa-2 cancer line compared with 5-FU (IC50 data) ([1]; MiaPaCa-2) | number of migrated cells towards the wound [3] | cytotoxic activity against MiaPaCa-2, XYZ-I-73 versus XYZ-I-71 ([1]; MiaPaCa-2, FIG. 7)
1 | Nc1ccn([C@@H]2O[C@H](CO)[C@@H](O)C2(F)F)c(=O)n1 [GemHCl, Gemcitabine Hydrochloride, reference compound] | 25.3 ± 1.3 | – | – | – | – | –
2 | CCCCCCCC(=O)Nc1nc(=O)n(C2CCCO2)cc1F (centres unmarked) [XYZ-I-71, N-(5-fluoro-2-oxo-1-(tetrahydrofuran-2-yl)-1,2-dihydropyrimidin-4-yl)octanamide] | 13.8 ± 1.7 | 2.27 | 13.8 ± 1.1 | greater efficacy | significantly inhibited | –
3 | CCCCCCCCCCCC(=O)Nc1nc(=O)n(C2CCCO2)cc1F (centres unmarked) [XYZ-I-73, N-(5-fluoro-2-oxo-1-(tetrahydrofuran-2-yl)-1,2-dihydropyrimidin-4-yl)dodecanamide] | 6.81 ± 2.1 | 3.94 | 6.81 ± 1.1 | greater efficacy | significantly inhibited | significant higher cytotoxic activity

Further lines, with some results ahead:

Row | IC50 [1, 4] [µM] | logP [2] | Compound | IC50 [1, 5] [µM] | efficacy against MiaPaCa-2 cancer line compared with 5-FU (IC50 data) ([1]; MiaPaCa-2) | number of migrated cells towards the wound [3] | cytotoxic activity against MiaPaCa-2, XYZ-I-73 versus XYZ-I-71 ([1]; MiaPaCa-2, FIG. 7)
4 | 51.1 ± 1.1 | – | O=c1[nH]cc(F)c(=O)[nH]1 [Compound 5-FU, 5-Fluorouracil, reference compound] | – | – | – | –
5 | 28 ± 1.5 | – | CCc1c2c(nc3ccc(OC(=O)N4CCC(N5CCCCC5)CC4)cc13)-c1cc3c(c(=O)n1C2)COC(=O)[C@]3(O)CC [Irinotecan, reference compound] | – | – | – | –
